# Earlier results in patent US20200147194A1, “PEPTIDE VACCINE AND PEPTIDE VACCINE COMPOSITION FOR CRANIAL NERVE DISEASE” (KEIO UNIVERSITY, priority 2017, published 2020).
# System: pre-alteration peptides (SEQ ID NO:12)
substance,measurement,value
"SEQ ID NO:16: SEQ ID NO:12 with leucine substituted for the second amino acid from the N-terminus; HLA-A*02:01-binding, VEGFR-2 (VLAMFFWLL; modified peptide)",CTLs induced by stimulation by the peptide: recognition of pre-alteration peptides (SEQ ID NO:12),able recognize and damage
